The results in this text go back to patent publication US4396606A, “Novel polypeptide analgesics” (Addiction Research Foundation, priority 1979, dated 1983).

Data set [1] concerns rat brain membranes. Briefly: radioreceptor binding assay. The settings on record: for IC50: 1 nM radioligand, 1 h at 23°. As to the method:
The radioreceptor binding assay used well washed rat brain membranes that had been incubated for 30 min at 37° with 100 mM NaCl to remove bound endogenous ligands. Blume (1978) Proc. Natl. Acad. Sci. 75, 1713. Several radioligands (1 nM final concentration) and competing ligands were tested. Competing ligands were added to the membrane suspension in Tris buffer, pH 7.4 at 23°, and radioligand was added immediately thereafter. Assay volume was 500 μl. After incubation (1 h, 23°), the mixture was chilled, filtered, washed twice, and counted.
Washed membranes from rat brain homogenate, 1 h incubation at 23°. Data are IC50 values (nM) from complete log dose-inhibition curves for inhibition of stereospecific binding of the various radioligands. […] DADLE=D-ala^2 -D-leu^5 -enkephalin. DHM=dihydromorphine.

Data set [2] relates to guinea pig ileum myenteric plexus-longitudinal muscle preparation. Briefly: guinea pig ileum myenteric plexus-longitudinal muscle preparation bioassay. The settings on record: for IC50: inhibition of electrically stimulated twitch, geometric mean of several muscle strips. The data set is classed as cell-based. From the text: Starting material was 100 g MSH concentrate, the second oxycellulose adsorbate in commercial ACTH production from procine pituitary glands (Schally et al (1962) Endocrinology 71, 164). The initial steps, with 25 g batches, have been described in Lowney et al (1979) Life Sci. 24, 2377: extraction and back-extraction with butanol; separation from β-endorphin on Bio-Gel P6; preparative reversed-phase HPLC on C18 columns, first with a methanol gradient in trifluoroacetic acid (TFA), then with an acetonitrile gradient in Tris buffer at neutrality, followed by elution of the active material with TFA. Every step was monitored by assay on the guinea pig ileum myenteric plexus-longitudinal muscle preparation. Kosterlitz & Waterfled (1975) Ann. Rev. Pharmacol. 15, 29; Schulz & Goldstein (1973) Brit. J. Pharmacol. 48, 655.
(§1) The guinea pig ileum myenteric plexus-longitudinal muscle preparation was used as described in Kosterlitz et al, supra, and Schulz & Goldstein, supra. […] Geometric means of IC50 values from several muscle strips were obtained, with standard errors in log units. Kd values for naloxone as an antagonist were determined from the ratio of IC50 values in the presence and absence of a fixed naloxone concentration. The mouse vas deferens was used as described in Hughes at al (1975) Brit. J. Pharmacol. 53, 371. IC50 and naloxone Kd values were determined as above.
(§2) Effects of dynorphin-(1-13) in two bioassays. […] Naloxone Kd is the apparent dissociation constant of the antagonist, computed from the equation Kd =[…]/(D.R.-1), derived from the mass law for competitive antagonism, where C=concentration of naloxone (here 100 nM), and D.R.=dose ratio of agonist, the ratio of IC50 doses in the presence and absence of the antagonist. The same procedures were followed with the mouse vas deferens. IC50 values are geometric means, with standard errors in log units, number of tissue preparations in parentheses. Kd determinations were based on four tissue preparations. RX-1 is des-arg^6 -dynorphin-(1-13); RS-2 has gly^6 insertion in dynorphin-(1-13).

The test system of data set [3] is mouse vas deferens. Briefly: mouse vas deferens bioassay. The data set is classed as cell-based. The settings on record: for IC50: inhibition of electrically stimulated twitch, geometric mean; for Potency in mouse vas deferens / potency in guinea pig ileum: ratio of potencies in the two bioassays. How it is done:
as §1, §2

The subject of data set [4] is antiserum to dynorphin (1-13)-thyroglobulin conjugate. Description: dynorphin radioimmunoassay. Type of data set: binding, rabbit. From the text: The subject dynorphin was used for the development of immunoassays, illustrated particularly by a radioimmunoassay. For carrying out the immunoassay, it is necessary to prepare antigens which specifically recognize the oligopeptide, in this case dynorphin. To prepare antigen conjugates, thyroglobulin was conjugated to synthetic dynorphin (1-13). The procedure for preparing the antigen conjugate, injecting the antigen conjugate into animals and isolating the antisera is described as follows.
Synthetic dynorphin (1-13) (3.25 μmoles, 5.2 mg) was dissolved in 2 ml of 100 mM sodium phosphate buffer at neutrality. To the mixture was added with agitation 10^5 cpm of ^125 I-dynorphin to serve as a tracer. After addition of the tracer, 26 mg of thyroglobulin (bovine type 1, Sigma) was added and the mixture cooled in an ice-bath after the thyroglobulin dissolved. A 1:100 dilution with cold water of glutaraldehyde (Sigma, Grade 1, 25% aqueous solution) (1 ml) was added dropwise with stirring in a cold room at 4° and agitation continued for 30 min., followed by warming to room temperature and continuing the stirring for 3 hrs.
Based on the coupling efficiency calculated from the cpm of the dialysis bag residue, after lyophilizing, sufficient of the conjugate was employed to provide 50-100 μg of coupled oligopeptide per rabbit. For six rabbits, the dry material was added to 4 ml of 0.9% NaCl, followed by 4 ml of Freund's incomplete adjuvant. The mixture was uniformly dispersed by drawing up and down in a syringe and needle for 30 mins., the mixture divided into six aliquots and approximately 10 to 12 interdermal injections made in a shaved New Zealand White X San Juan hybrid rabbit. Booster injections were made at two week intervals, with a bleeding taken 10 days after the fourth booster shot, 50 ml of blood being removed from the ear artery, allowed to clot, the serum removed and stored frozen.
In small borosilicate tubes was added 25 μl dynorphin (equimolar to Na ^125 I), 50 μl Na ^125 I, and 20 μl chloramine-T and the mixture allowed to react at room temperature for 30-45 mins. The reaction was terminated by adding 100 μl of sodium metabisulfite. After washing a Sephadex G-15 column (1.2×35 cm) with 0.25 M acetic acid and 0.1% bovine serum albumin, the reaction mixture was added and eluted with the same solvent, collecting 1 ml fractions at a rate of 0.3 ml/min, collecting a total of 50 fractions.
Antiserum: A 1:10 dilution of the antiserum in 50 mM sodium phosphate buffer, pH7.4, containing 50 mM NaCl was diluted 1:10^4 with buffer B;
Dynorphin (1-13) standard: Standards were prepared by taking 10 μl of a 10 mM stock solution in water and adding 990 μl of methanolic HCl to make a […] dynorphin solution followed by 1:100 dilutions to provide the desired series.
^125 I-dynorphin (1-13) trace: The trace stored in 0.25 M acetic acid containing 0.1% BSA was diluted to about 5,000 cpm/100 μl with buffer B.
The procedure for the assay was as follows: All solutions were in ice at the outset and all operations were carried out in ice. In a […] borosilicate glass tube was added in the following order 100 μl of dynorphin (1-13) standard or test sample in methanolic HCl; 100 μl of the antiserum dilution; and 100 μl of the trace, followed by incubation at 0°-4° for 24 hrs. Incubation was terminated with a charcoal mixture prepared by mixing 3 g Norit A, 0.3 g dextran, 15 ml horse serum and the mixture brought to 100 ml with buffer A and mixed for 10 min in a cold room before use. To each incubation tube was added 1 ml of a charcoal mixture, the mixture vortexed followed by incubation for 5 min in a cold room and then centifuged at 5000×g for 15 min in a Beckman Model J6B (4200 rpm). To a 13×100 mm borosilicate glass tube was transferred 850 μl of the supernatant and the tube counted for 5 min in a gamma counter.

A short description of data set [5]: treatment with cyanogen bromide.
The mark [6] stands for this setting: ^a = unusually shallow slope, read-out: IC50 for inhibition of stereospecific binding, radioligand 3H-DHM.
Setting [7] is: ^a = unusually shallow slope, read-out: IC50 for inhibition of stereospecific binding, radioligand 3H-DADLE.

Where two headings read alike, the source gives them in different places.

For `C=CCN1CC[C@]23CCCC[C@H]2[C@H]1Cc1ccc(O)cc13` [levallorphan], the “displacement of radioligand (stereospecific saturable binding)” value in data set [1] (1 μM final concentration) is reported as “about 70 % of total binding”.

A word on the IC50: it is the concentration at which inhibition is half-maximal. For `Oc1ccc2c3c1O[C@H]1[C@@H](O)C=C[C@H]4[C@@H](C2)NCC[C@@]341` [Normorphine], the IC50 in data set [2] (Cavia porcellus) turned out to be 120 nM; in data set [3] (Mus musculus), 230 nM; in data set [1] (setting [6]), 5 nM; in data set [1] (with Na, read-out: IC50 for inhibition of stereospecific binding, radioligand 3H-naloxone +Na), 260 nM; in data set [1] (without Na, read-out: IC50 for inhibition of stereospecific binding, radioligand 3H-naloxone -Na) it was 21 nM.

On to `C=CCN1CC[C@@]23CCCC[C@@H]2[C@@H]1Cc1ccc(O)cc13` [dextrallorphan], for which the “effect on radioligand binding” value in data set [1] (1 μM competing ligand) is “without effect”.

For the compound βc -endorphin [reference compound], the IC50 in data set [2] amounted to 34 nM; in data set [1] (setting [7]) it was 2.1 nM; in data set [1] (setting [6]) it was 1.8 nM. In data set [3], the “Potency in mouse vas deferens / potency in guinea pig ileum” value is listed as 1.5.

Take “H-tyr-gly-gly-phe-leu-arg-arg-ile-arg-pro-lys-leu-lys-OH [Dynorphin-(1-13)]”: the “potency relative to leu-enkephalin” value in data set [2] (guinea pig ileum test) was “about 1000 x”. Also, the “potency relative to normorphine” value in data set [2] (guinea pig ileum test) is on record as “about 350 x”. The “potency relative to β-endorphin” value in data set [2] (guinea pig ileum test) is “about 30 x”. For the same compound, the IC50 worked out at 0.63 nM in data set [2], 7.5 nM in data set [3], 43 nM in data set [1] (setting [7]) and 16 nM in data set [1] (setting [6]). For the same compound, the “persistence in the guinea pig ileum test” value in data set [2] (unlike β-endorphin) is “long persistence”. The “Potency in mouse vas deferens / potency in guinea pig ileum” value in data set [3] is on record as 0.08. Besides, the B/Bo in data set [4] (1 × 10^-13 moles dynorphin per assay tube) is 15; in data set [4] (1 × 10^-14 moles dynorphin per assay tube) it was 45; in data set [4] (1 × 10^-15 moles dynorphin per assay tube), 85; in data set [4] (1 × 10^-16 moles dynorphin per assay tube), 100; in data set [4] (5 × 10^-13 moles dynorphin per assay tube), 5; in data set [4] (5 × 10^-14 moles dynorphin per assay tube), 30. Also, the B/Bo came to 75 in data set [4] (5 × 10^-15 moles dynorphin per assay tube) and 100 in data set [4] (5 × 10^-16 moles dynorphin per assay tube). Further, the “resistance to treatment with cyanogen bromide” value in data set [5] is reported as “relatively resistant”.
